Measured values: the NIST ThermoML archive (doi:10.1021/je034290l)

Experiments:
[1] = Liquid
[2] = refractive index (Na D-line) (dimensionless); conditions: 318.15 K; 101.33 kPa; Liquid; Standard Abbe refractometry

CCC(=O)OC [methyl propanoate]
Conditions	mass density [kg/m3]
[1], 318.15 K, 101.33 kPa	884.3

[1]
Conditions	vapor or sublimation pressure [kPa]
325.88 K	40.08
327.07 K	42.57
328.03 K	44.13
329 K	45.29
329.68 K	46.72
330.24 K	47.97
330.7 K	49.34
332 K	50.58
332.74 K	51.89
333.19 K	53.37
334.04 K	54.63
334.49 K	55.93
335.63 K	57.49
335.97 K	58.57
336.7 K	60.05
337.5 K	61.5
338.06 K	62.73
338.52 K	64.17
339.43 K	66.58
339.71 K	67.89
340.73 K	69.17
341.07 K	70.53
341.52 K	71.89
341.72 K	72.42
342.35 K	73.37
342.6 K	75.37
342.88 K	75.83
343.25 K	75.91
343.95 K	77.99
344.15 K	78.43
344.25 K	78.74
344.75 K	79.89
345.4 K	82.35
345.65 K	82.59
346.32 K	84.18
346.57 K	85.43
346.65 K	86.74
347.23 K	87.87
347.4 K	88.1
348.15 K	90.74
348.73 K	91.95
348.98 K	93.23
349.23 K	94.6
349.73 K	96.03
350.23 K	97.26
350.59 K	98.7
350.99 K	100
351.65 K	101.32
352.23 K	102.75
352.4 K	103.87
352.82 K	105.43
352.9 K	106.58
353.73 K	107.82
353.82 K	109.39
354.15 K	110.78
354.57 K	112.07
354.82 K	113.15
355.65 K	114.82
355.74 K	115.9
355.82 K	117.13
356.32 K	118.57
356.9 K	120.15
357.15 K	121.17
357.39 K	122.81
357.9 K	123.81
358.24 K	124.65
358.48 K	126.73
358.65 K	127.87
358.98 K	129.37
359.32 K	130.43
359.48 K	130.89
359.98 K	133.25
360.4 K	134.57
360.57 K	135.81
361.08 K	137.35
361.4 K	138.56
361.73 K	140
361.9 K	141.21
362.44 K	142.57
362.57 K	144.11
363.07 K	145.35
363.4 K	146.48
363.73 K	148.09
363.91 K	149.39
364.4 K	151.04
364.57 K	152.48
364.9 K	153.26
364.99 K	154.82
365.38 K	156.06
365.48 K	156.17
365.82 K	158.49
365.9 K	159.73
366.15 K	160.57
366.57 K	162.57
366.65 K	163.38
367.15 K	165.17
367.4 K	166.74
367.82 K	167.89

Conditions	refractive index
[2]	1.3641
